Like-named read-outs stand apart in the source and are kept apart here.
Test system: HCV proteins in Rep5.1 cells (replicon cell line)
Assay: Inhibitory activity of HCV: cell-based ELISA in replicon cell line Rep5.1 (decrease of HCV proteins)
Design: species or system hepatitis C virus
Details: Rep5.1 cells, 72 hours with drug
How it was run: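 HCV protein loss was quantified by ELISA on methanol/acetone-fixed cells 72 h after drug addition, probing with selected HCV-positive human plasma, and IC50 was defined as 50% reduction relative to untreated wells. The cells were Rep5.1 replicon cells cultured in DMEM-10 with 500 μg/ml G418, plated at 5000 per well and dosed with serial dilutions after 4 h attachment.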

[1] = Hepatitis C virus, 72 h, concentration at which 50% of HCV proteins was decreased, Table 2, read-out: IC50
[2] = Hepatitis C virus, 72 h, decrease of HCV proteins measured by HCV antibody, Table 1, read-out: Level (IC50 values classified)
[3] = concentration at which 50% of HCV proteins was decreased, Table 2, read-out: IC50

Compound | IC50 [1] | IC50 [2] | IC50 [3]
CC1=C(C(=O)OCc2ccc(OCC(C)C)cc2)CNC(=S)N1 [Compound 72, 6-methyl-2-thioxo-1,2,3,4-tetrahydro-pyrimidine-5-carboxylic acid 4-isobutoxy-benzyl ester] | < 0.5 µM | < 1 µM | –
CC1=C(C(=O)OCc2nc3ccccc3n2C)CNC(=S)N1 [Compound 241, 6-methyl-2-thioxo-1,2,3,4-tetrahydro-pyrimidine-5-carboxylic acid 1-methyl-1H-benzoimidazol-2-ylmethyl ester] | 97 µM | > 20 µM | –
CCCCCCCCNC(=O)CCCCCOC(=O)C1=C(C)NC(=S)NC1 [19′, 6-methyl-2-thioxo-1,2,3,4-tetrahydro-pyrimidine-5-carboxylic acid 5-octylcarbamoyl-pentyl ester] | > 100 µM | > 20 µM | –
CC1=C(C(=O)OCc2sc3sc(C)nc3c2C)CNC(=S)N1 [Compound 216, 6-methyl-2-thioxo-1,2,3,4-tetrahydro-pyrimidine-5-carboxylic acid 2,6-dimethyl-thieno[3,2-d]thiazol-5-ylmethyl ester] | 5 µM | 1 to 10 µM | –
CC1=C(C(=O)OCCc2ccc(F)cc2)CNC(=S)N1 [Compound 93, 6-methyl-2-thioxo-1,2,3,4-tetrahydro-pyrimidine-5-carboxylic acid 2-(4-fluoro-phenyl)-ethyl ester] | – | – | 0.7 µM
CC1=C(C(=O)OCc2ccccc2C(F)(F)F)CNC(=S)N1 [Compound 100, 6-methyl-2-thioxo-1,2,3,4-tetrahydro-pyrimidine-5-carboxylic acid 2-trifluoromethyl-benzyl ester] | < 0.4 µM | < 1 µM | –
CC1=C(C(=O)OCCCc2ccc(OCc3ccccc3)cc2)CNC(=S)N1 [Compound 108, 6-methyl-2-thioxo-1,2,3,4-tetrahydro-pyrimidine-5-carboxylic acid 3-(4-benzyloxy-phenyl)-propyl ester] | < 0.4 µM | < 1 µM | –
CC1=C(C(=O)OCc2cc(F)c(F)c(F)c2)C(CF)NC(=S)N1 (stereo not shown) [91′, 4-fluoromethyl-6-methyl-2-thioxo-1,2,3,4-tetrahydro-pyrimidine-5-carboxylic acid 3,4,5-trifluoro-benzyl ester] | 1.6 µM | 1 to 10 µM | –
CSCCCOC(=O)C1=C(C)NC(=S)NC1CF (stereo not shown) [63′, 4-fluoromethyl-6-methyl-2-thioxo-1,2,3,4-tetrahydro-pyrimidine-5-carboxylic acid 3-methylsulfanyl-propyl ester] | > 100 µM | > 20 µM | –
C=C(Cl)COC(=O)C1=C(C)NC(=S)NC1 [Compound 98, 6-methyl-2-thioxo-1,2,3,4-tetrahydro-pyrimidine-5-carboxylic acid 2-chloro-allyl ester] | 7 µM | 1 to 10 µM | –
CCc1ccc(CCOC(=O)C2=C(C)NC(=S)NC2)o1 [22′, 6-methyl-2-thioxo-1,2,3,4-tetrahydro-pyrimidine-5-carboxylic acid 2-(5-ethyl-furan-2-yl)-ethyl ester] | < 0.4 µM | < 1 µM | –
CC1=C(C(=O)OCCc2ccc(Cl)c(C(F)(F)F)c2)C(CO)NC(=S)N1 (stereo not shown) [67″, 4-hydroxymethyl-6-methyl-2-thioxo-1,2,3,4-tetrahydro-pyrimidine-5-carboxylic acid 2-(4-chloro-3-trifluoromethyl-phenyl)-ethyl ester] | < 0.4 µM | < 1 µM | –
CC1=C(C(=O)OCc2c(C)cc(C)cc2C)CNC(=S)N1 [Compound 142, 6-methyl-2-thioxo-1,2,3,4-tetrahydro-pyrimidine-5-carboxylic acid 2,4,6-trimethyl-benzyl ester] | 6 µM | 1 to 10 µM | –
C=CCOC(=O)C1=C(C)NC(=S)NC1 [Compound 16, 6-methyl-2-thioxo-1,2,3,4-tetrahydro-pyrimidine-5-carboxylic acid allyl ester] | 74 µM | > 20 µM | –
CC1=C(C(=O)OCc2ccccc2S(C)(=O)=O)CNC(=S)N1 [Compound 112, 6-methyl-2-thioxo-1,2,3,4-tetrahydro-pyrimidine-5-carboxylic acid 2-methanesulfonyl-benzyl ester] | > 100 µM | > 20 µM | –
CC1=C(C(=O)OCC2CCC2)CNC(=S)N1 [Compound 80, 6-methyl-2-thioxo-1,2,3,4-tetrahydro-pyrimidine-5-carboxylic acid cyclobutylmethyl ester] | 2.3 µM | 1 to 10 µM | –
CC1=C(C(=O)OCC#Cc2cccs2)CNC(=S)N1 [Compound 239, 6-methyl-2-thioxo-1,2,3,4-tetrahydro-pyrimidine-5-carboxylic acid 3-thiophen-2-yl-prop-2-inyl ester] | – | – | < 0.4 µM
CC1=C(C(=O)OCc2c(C)nn(-c3ccccc3)c2C)CNC(=S)N1 [Compound 181, 6-methyl-2-thioxo-1,2,3,4-tetrahydro-pyrimidine-5-carboxylic acid 3,5-dimethyl-1-phenyl-1H-pyrazol-4-ylmethyl ester] | > 100 µM | > 20 µM | –

Compound | IC50 [1] | IC50 [2] | IC50 [3]
CC1=C(C(=O)OCc2cccc(Cl)c2)CNC(=S)N1 [Compound 91, 6-methyl-2-thioxo-1,2,3,4-tetrahydro-pyrimidine-5-carboxylic acid 3-chloro-benzyl ester] | < 0.4 µM | < 1 µM | –
CCOc1ccc(COC(=O)C2=C(C)NC(=S)NC2)cc1 [Compound 71, 6-methyl-2-thioxo-1,2,3,4-tetrahydro-pyrimidine-5-carboxylic acid 4-ethoxy-benzyl ester] | 2.5 µM | 1 to 10 µM | –
CC1=C(C(=O)OCCc2ccsc2)C(CF)NC(=S)N1 (stereo not shown) [Compound 252, 4-fluoromethyl-6-methyl-2-thioxo-1,2,3,4-tetrahydro-pyrimidine-5-carboxylic acid 2-thiophen-3-yl-ethyl ester] | 1.4 µM | 1 to 10 µM | –
CC1=C(C(=O)OCCc2ccccc2Cl)CNC(=S)N1 [Compound 118, 6-methyl-2-thioxo-1,2,3,4-tetrahydro-pyrimidine-5-carboxylic acid 2-(2-chloro-phenyl)-ethyl ester] | < 0.4 µM | < 1 µM | –
CC1=C(C(=O)OCCc2ccc(C)cc2)CNC(=S)N1 [Compound 173, 6-methyl-2-thioxo-1,2,3,4-tetrahydro-pyrimidine-5-carboxylic acid 2-p-tolyl-ethyl ester] | < 0.4 µM | – | –
CC1=C(C(=O)OCCc2ccccc2C)CNC(=S)N1 [Compound 133, 6-methyl-2-thioxo-1,2,3,4-tetrahydro-pyrimidine-5-carboxylic acid 2-o-tolyl-ethyl ester] | < 0.4 µM | < 1 µM | –
CC1=C(C(=O)OCCCc2ccncc2)CNC(=S)N1 [Compound 13, 6-methyl-2-thioxo-1,2,3,4-tetrahydro-pyrimidine-5-carboxylic acid 3-pyridin-4-yl-propyl ester] | > 100 µM | > 20 µM | –
CC1=C(C(=O)OCc2cc3ccsc3s2)CNC(=S)N1 [Compound 235, 6-methyl-2-thioxo-1,2,3,4-tetrahydro-pyrimidine-5-carboxylic acid thieno[2,3-b]thiophen-2-ylmethyl ester] | 0.9 µM | < 1 µM | –
CC1=C(C(=O)OCc2ccc(F)cc2Cl)C(CF)NC(=S)N1 (stereo not shown) [79′, 4-fluoromethyl-6-methyl-2-thioxo-1,2,3,4-tetrahydro-pyrimidine-5-carboxylic acid 2-chloro-4-fluoro-benzyl ester] | 1 µM | < 1 µM | –
CC1=C(C(=O)OCc2scc(C)c2Cl)CNC(=S)N1 [Compound 207, 6-methyl-2-thioxo-1,2,3,4-tetrahydro-pyrimidine-5-carboxylic acid 3-chloro-4-methyl-thiophen-2-ylmethyl ester] | 0.3 µM | < 1 µM | –
CC1=C(C(=O)OCCc2cc(F)cc(F)c2)C(CF)NC(=S)N1 (stereo not shown) [85′, 4-fluoromethyl-6-methyl-2-thioxo-1,2,3,4-tetrahydro-pyrimidine-5-carboxylic acid 2-(3,5-difluoro-phenyl)-ethyl ester] | 2.7 µM | 1 to 10 µM | –
CC1=C(C(=O)OCc2cccs2)CNC(=S)N1 [Compound 153, 6-methyl-2-thioxo-1,2,3,4-tetrahydro-pyrimidine-5-carboxylic acid thiophen-2-ylmethyl ester] | 2.7 µM | 1 to 10 µM | –
CCCCCC(CC)OC(=O)C1=C(C)NC(=S)NC1 (stereo not shown) [Compound 47, 6-methyl-2-thioxo-1,2,3,4-tetrahydro-pyrimidine-5-carboxylic acid 1-ethyl-hexyl ester] | < 0.5 µM | < 1 µM | –
CC1=C(C(=O)OC(C)(C)c2ccccc2)CNC(=S)N1 [Compound 27, 6-methyl-2-thioxo-1,2,3,4-tetrahydro-pyrimidine-5-carboxylic acid 1-methyl-1-phenyl-ethyl ester] | 47 µM | > 20 µM | –
COCC1NC(=S)NC(C)=C1C(=O)OCc1ccccc1 (stereo not shown) [Compound 109, 4-methoxymethyl-6-methyl-2-thioxo-1,2,3,4-tetrahydro-pyrimidine-5-carboxylic acid benzyl ester] | 100 µM | > 20 µM | –
CC1=C(C(=O)OCc2ccc(Br)s2)CNC(=S)N1 [Compound 203, 6-methyl-2-thioxo-1,2,3,4-tetrahydro-pyrimidine-5-carboxylic acid 5-bromo-thiophen-2-ylmethyl ester] | < 0.4 µM | < 1 µM | –
COCCN(C)c1ccc(CCCOC(=O)C2=C(C)NC(=S)NC2CF)cc1 (stereo not shown) [59′, 4-fluoromethyl-6-methyl-2-thioxo-1,2,3,4-tetrahydro-pyrimidine-5-carboxylic acid 3-{4-[(2-methoxy-ethyl)-methyl-amino]-phenyl}-propyl ester] | 34 µM | > 20 µM | –

Reference: patent US20060116390A1, “Hepatitis c virus inhibitors” (priority 2003, published 2006)
